In patent US20220380341A1, “INHIBITORS OF HIV-1 NEF FOR THE TREATMENT OF HIV DISEASE” (priority 2018, published 2022):
Where two headings read alike, the source gives them in different places.

What was measured:
HIV-1 NefNL4-3 = HIV-1 NefNL4-3 (Human immunodeficiency virus type 1 group M subtype B, UniProt P03406, A33V/T15A/T51N/V11I); assay: Surface plasmon resonance binding to recombinant full-length Nef (NL4-3); conditions: for T, minutes (residence time): 2-step induced fit, T = 1/koff2; for RU30/RUNef (extent of binding): response units at 30 μM relative to Nef immobilized on the SPR chip
[1] = biological target: Nef from SIV (strain mac239) (Simian immunodeficiency virus, UniProt Q5QGG3); assay: biochemical
Method: Also shown are SPR data recorded on a Reichert 4-channel SPR instrument. […] Recombinant Nef is immobilized on the biosensor surface, and each compound is injected and association/dissociation kinetics are recorded. The resulting data for the 3 isoforms are each best-fit using both a two-site model and a two-step, induced-fit model. Dissociation constants (KD), calculated from the kinetic association and dissociation constants from all three isoforms, are shown in columns 6-7. Data were fit using three regimes and the resulting KD: from each model are shown in the Table: 1:1 Langmuir fit; 2-site fit, which yields low and high affinity components; and a 2-step induced fit model.

HIV-1 Nef SF2 = biological target: T1, HIV-1 Nef SF2 (Human immunodeficiency virus type 1 group M subtype B, UniProt P03407); assay: biochemical; assay type: binding; conditions: two-step induced-fit model, Reichert SPR, read-out: Reichert SPR Nef SF2 (M) two-step fitting
T1 construct: made in house

HIV-1NL4-3 = assay: HIV-1 infectivity assay in TZM-bl reporter cell line (LTR-luciferase, 48 h); assay type: cell-based; conditions: Human immunodeficiency virus 1, TZM-bl
Summary of the method: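 Compounds were tested at 1 μM in TZM-bl cells infected with HIV-1NL4-3. Infectivity was read as luciferase signal 48 h after infection and expressed as percent inhibition, normalized between DMSO-treated wild-type infection (0%) and DMSO-treated Nef-defective HIV-1 infection (100% of the Nef-dependent effect).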

TZM-bl cell line = assay type: cell-based; conditions: human, 1 μM
Summary of the method: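 TZM-bl cells (HIV-1 LTR-luciferase) infected with HIV-1NL4-3 with compound at 1 μM; luciferase read 48 h later. Percent inhibition normalized to DMSO wild-type infection (0%) and Nef-defective HIV-1 infection (100% of Nef-dependent effect). Viability in uninfected TZM-bl cells by Cell Titer Blue.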

HIV-1 NL4-3 = assay: HIV-1 replication in normal donor PBMCs (p24 Gag AlphaLISA); assay type: cell-based; conditions: Table 1, 4 days
Method: FIG. 4. Inhibition of HIV-1 replication by compounds disclosed herein in PBMCs. Donor PBMCs were infected with HIV-1 in the presence of inhibitor concentrations ranging from 1 to 1,000 nM or the DMSO carrier solvent as a negative control (0.1% DMSO final). Replication was assessed by p24 Gag AlphaLISA (Perkin Elmer) […]. Each donor was also infected with Nef-defective HIV-1 to establish the baseline for Nef-dependent enhancement of replication in each culture. Cytotoxicity was assessed in uninfected PBMCs over the same incubation period using the CellTiter-Blue assay (Promega). Data were fit by non-linear regression analysis (GraphPad Prism v.7.04) to determine the IC50 and CC50 values shown.
The tables also show data for HIV-1 Replication in normal donor peripheral blood mononuclear cells (PBMCs), which is assay is conducted as follows:
Non-HLA-typed buffy coats (Source: Pittsburgh Central Blood Bank, #E3755) are received and processed within 24 hours of blood donation. PBMCs are isolated via rocking for RBC separation following 1:1 dilution with PBS, followed by Ficoll gradient centrifugation. The lymphocyte fraction is removed and washed several times for a final concentration of ˜150-300×10^6 cells per donor. Cells are activated for 3 days with 1-5 μg/mL PHA (Sigma) and 50 U/mL IL-2. Cells are plated at 750,000 cells/ml and viability is checked at day 3 using the Cell Titer Blue assay (Promega). If cells are >90% viable, then they are infected with HIV-1 NL4-3, wild-type or Δ-Nef mutant (input typically 30-500 pg/mL p24 capsid equivalents) in the presence or absence of Nef inhibitor analogs. IL-2 is included in the media at the time of infection. After 4 days, cells are lysed with 1% Triton X-100 for 1.5 h, checked for viability via Cell Titer Blue, and frozen/stored at −20° C. HIV-1 replication is assessed with a high-sensitivity HIV-1 p24 AlphaLISA assay (Perkin Elmer) in ½-volume 96-well plates, using one-half of the recommended assay volumes for all reagents (including samples). Assays are read on the BioTek Cytation5 instrument; readout is in AlphaUnits and replication in p24 pg/mL is determined using an HIV-1 p24 capsid protein standard included in the Alpha kit.

[2] = KD, M, Table 4, SPR fit 2-step induced fit, KD = koff/kon × koff2/(koff2 + kon2)
[3] = Nef NL4-3 Binding, SPR 2-state fitting KD, Table 1, 2-step induced-fit model
[4] = Reichert SPR Nef NL43 (M) two-step fitting, KD, two-step induced-fit model, Reichert SPR, Table 3
[5] = read-out: Nef NL4-3 Binding, SPR 1:1 or 2-site fitting KD2, Table 1, 2-site fit, second component
[6] = 1.0 μM, TZM-bl reporter cell line, Table 4, read-out: % Infectivity Inhibition
[7] = 1 μM, TZM-bl, normalized: DMSO wild-type HIV-1 = 0%, Nef-defective HIV-1 = 100%, read-out: HIV-1 Infectivity % Inhibition norm. to Δ-Nef @ 1 μM
[8] = 48 h, Table 1, TZM-bl cells, 1 μM, 48 h, 100% = Nef-defective HIV-1, read-out: HIV-1 Infectivity % Inhibition Norm. to Δ-Nef @ 1 μM

Row | SMILES | Kd (HIV-1 NefNL4-3) | Kd (HIV-1 NefNL4-3; [2]) | Kd (HIV-1 NefNL4-3; [3]) | Kd (HIV-1 NefNL4-3; [4]) | T, minutes (residence time) (HIV-1 NefNL4-3; Table 4) | Kd (HIV-1 NefNL4-3; [5]) | RU30/RUNef (extent of binding) (HIV-1 NefNL4-3) | Kd [1] | Kd (HIV-1 Nef SF2) | inhibition at 1 µM (HIV-1NL4-3; [6]) | inhibition at 1 µM (HIV-1NL4-3; [7]) | inhibition at 1 µM (HIV-1NL4-3; [8]) | % Cell Viability (TZM-bl cell line) | Percent Viability @ 1 μM (TZM-bl cells) (TZM-bl cell line) | IC50 (HIV-1 NL4-3; Human immunodeficiency virus 1, NL43, PBMC, 96 h) | HIV Replication PBMC IC50 vs. HIV NL4-3 (HIV-1 NL4-3; words (Not active, Borderline) where no bound is given) | Kd (HIV-1 NefNL4-3; Nef NL4-3 Binding, SPR 1:1 or 2-site fitting KD2, Table 1, 2-site fit, second component)
1 | Oc1c(CC2CCOCC2)c(-c2ccc(F)cc2)nn1-c1nc2ccccc2[nH]1 [Compound I-151, 1-(1H-1,3-benzodiazol-2-yl)-3-(4-fluorophenyl)-4-[(oxan-4-yl)methyl]-1H-pyrazol-5-ol] | 5.34e-07 M | 6.26e-06 M | 5.65e-06 M | 5.65e-06 M | 4.68E + 00 minutes | 4.65e-05 M | 8.50E- 03 | 1.46 µM | 3.5e-06 M | 100% | 106% | 106% | 83.0% | 83.0% |  |  | 
2 | Oc1c(CCc2ccc(F)cc2)c(C2CC2)nn1-c1nc2cc(Cl)ccc2[nH]1 [Compound I-170, 1-(5-chloro-1H-1,3-benzodiazol-2-yl)-3-cyclopropyl-4-[2-(4-fluorophenyl)ethyl]-1H-pyrazol-5-ol] |  | 1.25e-08 M | 1.25e-08 M | 1.25e-08 M | 8.01E + 02 minutes | 1.99e-06 M | 2.34E- 02 | 0.00287 µM | 4.9e-07 M | 67.1% | 67.1% | 67.1% | 98.8% | 98.8% |  |  | 
3 | CC(C)(C)OC(=O)N1CCCCC1Cc1nn(-c2nc3ccccc3[nH]2)c(O)c1CCc1ccc(F)cc1 (stereo not shown) [Compound I-207, tert-butyl 2-{[1-(1H-1,3-benzodiazol-2-yl)-4-[2-(4-fluorophenyl)ethyl]-5-hydroxy-1H-pyrazol-3-yl]methyl}piperidine-1-carboxylate] | 1.49e-09 M |  |  |  |  | 8.09e-07 M | 4.14E- 03 |  |  | 0% |  | -9.4% | 99.3% | 99.3% | ≥ 1 µM |  | 
4 | CC(C)(C)OC(=O)N1CCC(CCc2c(-c3cccc(S(C)(=O)=O)c3)nn(-c3nc4ccccc4[nH]3)c2O)CC1 [Compound I-210, tert-butyl 4-{2-[1-(1H-1,3-benzodiazol-2-yl)-5-hydroxy-3-(3-methanesulfonylphenyl)-1H-pyrazol-4-yl]ethyl}piperidine-1-carboxylate] | 8.86e-07 M | 4.56e-06 M | 4.56e-06 M | 4.56e-06 M | 1.06E + 01 minutes | 8.12e-06 M | 5.18E- 03 | 0.709 µM | 4.31e-06 M | 95.4% | 95.4% | 95.4% | 83.7% | 83.7% |  |  | 
5 | CC(C)(C)OC(=O)N1CCC(c2nn(-c3nc4ccc(Cl)cc4[nH]3)c(O)c2CCc2ccc(F)cc2)CC1 [Compound I-216, tert-butyl 4-[1-(5-chloro-1H-1,3-benzodiazol-2-yl)-4-[2-(4-fluorophenyl)ethyl]-5-hydroxy-1H-pyrazol-3-yl]piperidine-1-carboxylate] | 1.24e-07 M | 8.71e-12 M | 8.71e-12 M |  | 4.71E + 05 minutes | 8.29e-07 M | 1.60E- 02 |  |  | 100% |  | 176% | 87.1% | 87.1% |  | Not active | 
6 | Oc1c(CCc2ccc(F)cc2)c(C2CC2)nn1-c1nc2cccnc2[nH]1 [Compound I-308, 3-cyclopropyl-4-[2-(4-fluorophenyl)ethyl]-1-{3H-imidazo[4,5-b]pyridin-2-yl}-1H-pyrazol-5-ol] | 9.41e-07 M | 4.06e-06 M | 4.06e-06 M | 4.06e-06 M | 5.81E + 00 minutes |  | 6.06E- 03 | 3.85 µM | 2.91e-06 M | 61.4% | 61.4% | 61.4% | 100% | 100.1% |  |  | 2.21e-06 M
7 | CC(C)(O)C(=O)N1CCC(CCc2c(C3CC3)nn(-c3nc4cc(Cl)ccc4[nH]3)c2O)CC1 [Compound I-712, 1-(4-{2-[1-(5-chloro-1H-1,3-benzodiazol-2-yl)-3-cyclopropyl-5-hydroxy-1H-pyrazol-4-yl]ethyl}piperidin-1-yl)-2-hydroxy-2-methylpropan-1-one] | 6.85e-08 M | 1.99e-08 M | 1.99e-08 M | 1.99e-08 M | 7.54E + 02 minutes | 1.03e-05 M | 1.07E- 02 | 0.00219 µM | 5.9e-09 M | 52.3% | 52.6% | 52.6% | 100% | 104.4% |  |  | 
8 | CC(=O)N1CCC(Cc2c(-c3ccc(C(F)(F)F)cc3)nn(-c3nc4ccccc4[nH]3)c2O)CC1 [Compound I-720, 1-(4-{[1-(1H-1,3-benzodiazol-2-yl)-5-hydroxy-3-[4-(trifluoromethyl)phenyl]-1H-pyrazol-4-yl]methyl}piperidin-1-yl)ethan-1-one] | 1.19e-06 M | 1.81e-06 M | 1.81e-06 M | 1.81e-06 M | 1.32E + 00 minutes |  | 2.80E- 03 | 0.0218 µM |  | 92.2% | 92.2% | 92.2% | 71.4% | 71.4% |  |  | 
9 | CC(C)OC(=O)N1CCC(c2nn(-c3nc4ccccc4[nH]3)c(O)c2CCC2CCOCC2)CC1 [Compound I-722, propan-2-yl 4-[1-(1H-1,3-benzodiazol-2-yl)-5-hydroxy-4-[2-(oxan-4-yl)ethyl]-1H-pyrazol-3-yl]piperidine-1-carboxylate] | 2.24e-06 M |  | 5.49e-06 M | 5.49e-06 M |  | 7.2e-06 M |  | 4.9 µM | 1.28e-07 M |  | 53.4% | 53.4% |  | 86.8% |  |  | 
10 | CN(C)S(=O)(=O)N1CCC(c2nn(-c3nc4ccccc4[nH]3)c(O)c2CCc2ccc(F)cc2)CC1 [Compound I-746, 4-[1-(1H-1,3-benzodiazo1-2-y1)-4-[2-(4-fluorophenyl)ethyl]-5-hydroxy-1H-pyrazol-3-yl]-N,N-dimethylpiperidine-1-sulfonamide] | 7.96e-07 M |  |  |  |  |  |  | 0.0493 µM | 6.84e-06 M |  | 194% | 194% |  | 101.6% |  |  | 
